From ChEMBL document CHEMBL1151099, “Synthesis of new TNF- Inhibitors and their biological properties” (Bioorg Med Chem Lett, 1996)

Columns and labels:
Format in all cases: functional
[1] = organism: Mus musculus; test: In vitro inhibitory activity against TNF-alpha production in mouse macrophages stimulated with LPS
[2] = test system: Mus musculus; test: Protection against LPS-induced death of D-galactosamine-sensitized mice (10 in number) at specified dose of 0 mg/kg on day 7
[3] = test system: Mus musculus; test: Protection against LPS-induced death of D-galactosamine-sensitized mice (10 in number) at specified dose of 100 mg/kg on day 7
[4] = test system: Mus musculus; test: Protection against LPS-induced death of D-galactosamine-sensitized mice (10 in number) at specified dose of 50 mg/kg on day 7

Structure (SMILES) | IC50 [1] [µM] | Survival rate [2] | Survival rate [3] | Survival rate [4]
NCCCN1C2Cc3cc4c(cc3C1Cc1cc3c(cc12)OCO3)OCO4 | 52 |  |  | 
CCOC(=O)CC(=O)N1C2Cc3cc4c(cc3C1Cc1cc3c(cc12)OCO3)OCO4 | 26 | 0 number of mice | 3 number of mice | 2 number of mice
COc1cc2c(cc1OC)C1Cc3cc4c(cc3C(C2)N1C(C)=O)OCO4 (stereo not drawn) | 22 |  |  | 
CCCN1C2Cc3cc4c(cc3C1Cc1cc3c(cc12)OCO3)OCO4 | 56 |  |  | 
O=CN1C2Cc3cc4c(cc3C1Cc1cc3c(cc12)OCO3)OCO4 | 22 | 0 number of mice | 7 number of mice | 7 number of mice
CNC(=O)N1C2Cc3cc4c(cc3C1Cc1cc3c(cc12)OCO3)OCO4 | 15 | 0 number of mice | 6 number of mice | 6 number of mice
c1c2c(cc3c1OCO3)C1Cc3cc4c(cc3C(C2)N1)OCO4 | 15 | 0 number of mice | 10 number of mice | 7 number of mice
CC(=O)N1C2Cc3cc4c(cc3C1Cc1cc3c(cc12)OCCO3)OCCO4 | 34 | 0 number of mice | 7 number of mice | 4 number of mice
CC(=O)CCCCn1c(=O)c2c(ncn2C)n(C)c1=O [PENTOXIFYLLINE] | 68 | 0 number of mice | 4 number of mice | 
CCCC(=O)N1C2Cc3cc4c(cc3C1Cc1cc3c(cc12)OCO3)OCO4 | 11 | 0 number of mice | 5 number of mice | 4 number of mice
O=C(CCO)N1C2Cc3cc4c(cc3C1Cc1cc3c(cc12)OCO3)OCO4 | 27 | 0 number of mice | 6 number of mice | 5 number of mice
Oc1cc2c(cc1O)C1Cc3cc(O)c(O)cc3C(C2)N1 | > 100 |  |  | 
CCN1C2Cc3cc4c(cc3C1Cc1cc3c(cc12)OCO3)OCO4 | 27 | 0 number of mice | 10 number of mice | 9 number of mice
COc1cc2c(cc1OC)C1Cc3cc4c(cc3C(C2)N1)OCO4 (stereo not drawn) | 100 |  |  | 
COc1cc2c(cc1OC)C1Cc3cc(OC)c(OC)cc3C(C2)N1 | > 100 |  |  | 
CC(=O)N1C2Cc3cc4c(cc3C1Cc1cc(O)c(O)cc12)OCO4 (stereo not drawn) | 46 |  |  | 
CCC(=O)N1C2Cc3cc4c(cc3C1Cc1cc3c(cc12)OCO3)OCO4 | 11 | 0 number of mice | 8 number of mice | 8 number of mice

Structure (SMILES) | IC50 [1] [µM] | Survival rate [2] | Survival rate [3] | Survival rate [4]
CCOC(=O)C(=O)N1C2Cc3cc4c(cc3C1Cc1cc3c(cc12)OCO3)OCO4 | 15 | 0 number of mice | 2 number of mice | 3 number of mice
CC(=O)Oc1cc2c(cc1OC(C)=O)C1Cc3cc(OC(C)=O)c(OC(C)=O)cc3C(C2)N1C(C)=O | > 100 |  |  | 
CCCCCC(=O)N1C2Cc3cc4c(cc3C1Cc1cc3c(cc12)OCO3)OCO4 | > 100 |  |  | 
COc1cc2c(cc1OC)C1Cc3cc(OC)c(OC)cc3C(C2)N1C(C)=O | 38 |  |  | 
CCOC(=O)N1C2Cc3cc4c(cc3C1Cc1cc3c(cc12)OCO3)OCO4 | 31 | 0 number of mice | 3 number of mice | 3 number of mice
CN1C2Cc3cc4c(cc3C1Cc1cc3c(cc12)OCO3)OCO4 | 19 |  |  | 
CCCCN1C2Cc3cc4c(cc3C1Cc1cc3c(cc12)OCO3)OCO4 | 58 |  |  | 
O=C(c1ccccc1)N1C2Cc3cc4c(cc3C1Cc1cc3c(cc12)OCO3)OCO4 | 38 |  |  | 
NCCN1C2Cc3cc4c(cc3C1Cc1cc3c(cc12)OCO3)OCO4 | 14 | 0 number of mice | 8 number of mice | 8 number of mice
COCC(=O)N1C2Cc3cc4c(cc3C1Cc1cc3c(cc12)OCO3)OCO4 | 17 |  |  | 
CC(=O)N1C2Cc3cc4c(cc3C1Cc1cc3c(cc12)OCO3)OCO4 | 13 | 0 number of mice | 9 number of mice | 7 number of mice
c1c2c(cc3c1OCCO3)C1Cc3cc4c(cc3C(C2)N1)OCCO4 | 22 | 0 number of mice | 4 number of mice | 1 number of mice
Oc1cc2c(cc1O)C1Cc3cc4c(cc3C(C2)N1)OCO4 (stereo not drawn) | 44 |  |  | 
CC(=O)N1C2Cc3cc(O)c(O)cc3C1Cc1cc(O)c(O)cc12 | > 100 |  |  | 
OCCN1C2Cc3cc4c(cc3C1Cc1cc3c(cc12)OCO3)OCO4 | 36 | 0 number of mice | 9 number of mice | 7 number of mice
O=C(CO)N1C2Cc3cc4c(cc3C1Cc1cc3c(cc12)OCO3)OCO4 | 20 | 0 number of mice | 9 number of mice | 6 number of mice
